Key:
MT2 = test: (§1) Cytotoxicity against human MT2 cells by MTT assay; format: cell-based; details: mt2
[1] = system: Human immunodeficiency virus 1; test: Antiviral activity against HIV1 3B infected in human MT2 cells assessed as inhibition of virus-induced cytopathic effect by MTT assay; format: functional, organism-based
[2] = as §1; format: cell-based; details: MT2 cells
[3] = Human immunodeficiency virus 1, 3B, MT2, read-out: EC50

Compound	CC50 (MT2) [µM]	EC50 [1, 3] [µM]	EC50 ([1]; mt2)	CC50 [2] [µM]
COCCOc1nc(Nc2ccc(C#N)c(OCC=C(C)C)c2)nc(OC)n1	8.6	0.097	–	–
COCCOCCOc1nc(Nc2ccc(C#N)c(OCC=C(C)C)c2)nc(OC)n1	13	0.15	–	–
COCCOCCOCCOc1nc(Nc2ccc(C#N)c(OCC=C(C)C)c2)nc(OC)n1	4.2	0.38	–	–
CCc1nc(Nc2ccc(C#N)c(OCC=C(C)C)c2)nc(OCCOC)n1	2.1	0.057	–	–
CCc1nc(Nc2ccc(C#N)c(OCC=C(C)C)c2)nc(OCCOCCOC)n1	9.8	0.54	–	–
COc1nc(Nc2ccc(C#N)c(OCC=C(C)C)c2)nc(OCCN2CCN(C)CC2)n1	7	0.32	–	–
COc1nc(Nc2ccc(C#N)c(OCC=C(C)C)c2)nc(OCCOc2nc(Nc3ccc(C#N)c(OCC=C(C)C)c3)nc(OC)n2)n1	42	0.39	–	–
COc1nc(Nc2ccc(C#N)c(OCC=C(C)C)c2)nc(OCCCOc2nc(Nc3ccc(C#N)c(OCC=C(C)C)c3)nc(OC)n2)n1	21	0.17	–	–
COc1nc(Nc2ccc(C#N)c(OCC=C(C)C)c2)nc(OCCCCOc2nc(Nc3ccc(C#N)c(OCC=C(C)C)c3)nc(OC)n2)n1	> 100	–	Not Active	–
COc1nc(Nc2ccc(C#N)c(OCC=C(C)C)c2)nc(OCCOCCOc2nc(Nc3ccc(C#N)c(OCC=C(C)C)c3)nc(OC)n2)n1	> 100	–	Not Active	–
COc1nc(NCCNc2nc(Nc3ccc(C#N)c(OCC=C(C)C)c3)nc(OC)n2)nc(Nc2ccc(C#N)c(OCC=C(C)C)c2)n1	6	–	Not Active	–
COc1nc(NCCCNc2nc(Nc3ccc(C#N)c(OCC=C(C)C)c3)nc(OC)n2)nc(Nc2ccc(C#N)c(OCC=C(C)C)c2)n1	50	–	Not Active	–
COc1nc(Nc2ccc(C#N)c(OCC=C(C)C)c2)nc(OCCC2CCCCO2)n1 (racemic)	4.2	1.2	–	–
Cc1ccnc2c1NC(=O)c1cccnc1N2C1CC1 [NEVIRAPINE]	–	–	–	> 100

Source: ChEMBL document CHEMBL1949500, “Discovery of dimeric inhibitors by extension into the entrance channel of HIV-1 reverse transcriptase” (Bioorg Med Chem Lett, 2012)
